Source: ChEMBL document CHEMBL1201862, “PubChem BioAssay data set” (2004)
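In this assay, cells in 96-well plates receive the compound at five concentrations for 48 hours. Endpoints are linearly interpolated between the surrounding concentrations. GI50: concentration for 50% inhibition of growth.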 Active and inactive are the calls of the source. Cut-off read from the data, not from the text of the source: active = GI50 up to about 1.1 µM and inactive = higher.

How the values were obtained:
Experiment in all cases: growth of human tumour cells (NCI), 48 h
[1] = test system: M14
[2] = test system: NCI-H23
[3] = test system: SF-539
[4] = test system: HOP-92
[5] = test system: RPMI-8226
[6] = test system: EKVX
[7] = test system: NCI-H460
[8] = test system: 786-0
[9] = test system: UACC-257
[10] = test system: RXF 393
[11] = test system: HOP-62
[12] = test system: SK-OV-3
[13] = test system: NCI-H522
[14] = test system: SK-MEL-28
[15] = test system: A549
[16] = test system: KM-20L2
[17] = test system: DMS-273
[18] = test system: HCC 2998
[19] = test system: SNB-19
[20] = test system: ACHN
[21] = test system: SF-295
[22] = test system: CCRF-CEM
[23] = test system: UACC-62
[24] = test system: HCT-15
[25] = test system: A498
[26] = test system: HOP-18
[27] = test system: DLD-1
[28] = test system: OVCAR-5
[29] = test system: SN12C
[30] = test system: IGROV-1
[31] = test system: OVCAR-3
[32] = test system: KM12
[33] = test system: K562
[34] = test system: MOLT-4
[35] = test system: UO-31
[36] = test system: SK-MEL-5
[37] = test system: COLO 205
[38] = test system: Malme-3M
[39] = test system: OVCAR-8
[40] = test system: HL-60
[41] = test system: HCT-116
[42] = test system: TK-10
[43] = test system: M19-MEL
[44] = test system: LXFL 529
[45] = test system: SF-268
[46] = test system: U-251
[47] = test system: DMS-114
[48] = test system: SK-MEL-2
[49] = test system: SNB-78
[50] = test system: SW-620
[51] = test system: LOX IMVI
[52] = test system: MDA-MB-231
[53] = test system: HT-29
[54] = test system: BT-549
[55] = test system: MDA-N
[56] = test system: SR
[57] = test system: PC-3
[58] = test system: MDA-MB-435
[59] = test system: SNB-75
[60] = test system: OVCAR-4
[61] = test system: Hs-578T
[62] = test system: DU-145
[63] = test system: NCI/ADR-RES
[64] = test system: NCI-H226
[65] = test system: T47D
[66] = test system: CAKI-1
[67] = test system: MCF7

C=CCn1c(=O)n(CC=C)c(=O)n(CC=C)c1=O
GI50 [1]: > 100 µM (inactive)
GI50 [2]: > 100 µM (inactive)
GI50 [3]: > 100 µM (inactive)
GI50 [4]: > 100 µM (inactive)
GI50 [5]: > 100 µM (inactive)
GI50 [6]: > 100 µM (inactive)
GI50 [7]: > 100 µM (inactive)
GI50 [8]: > 100 µM (inactive)
GI50 [9]: > 100 µM (inactive)
GI50 [10]: > 100 µM (inactive)
GI50 [11]: > 100 µM (inactive)
GI50 [12]: > 100 µM (inactive)
GI50 [13]: > 100 µM (inactive)
GI50 [14]: > 100 µM (inactive)
GI50 [15]: > 100 µM (inactive)
GI50 [16]: > 100 µM (inactive)
GI50 [17]: > 100 µM (inactive)
GI50 [18]: > 100 µM (inactive)
GI50 [19]: > 100 µM (inactive)
GI50 [20]: > 100 µM (inactive)
GI50 [21]: > 100 µM (inactive)
GI50 [22]: > 100 µM (inactive)
GI50 [23]: > 100 µM (inactive)
GI50 [24]: > 100 µM
GI50 [25]: > 100 µM (inactive)
GI50 [26]: > 100 µM (inactive)
GI50 [27]: > 100 µM (inactive)
GI50 [28]: > 100 µM (inactive)
GI50 [29]: > 100 µM (inactive)
GI50 [30]: > 100 µM (inactive)
GI50 [31]: > 100 µM (inactive)
GI50 [32]: > 100 µM (inactive)
GI50 [33]: > 100 µM (inactive)
GI50 [34]: > 100 µM (inactive)
GI50 [35]: > 100 µM (inactive)
GI50 [36]: > 100 µM (inactive)
GI50 [37]: > 100 µM (inactive)
GI50 [38]: > 100 µM (inactive)
GI50 [39]: > 100 µM (inactive)
GI50 [40]: > 100 µM (inactive)
GI50 [41]: > 100 µM (inactive)
GI50 [42]: > 100 µM (inactive)
GI50 [43]: > 100 µM (inactive)
GI50 [44]: > 100 µM (inactive)
GI50 [45]: > 100 µM (inactive)
GI50 [46]: > 100 µM (inactive)
GI50 [47]: > 100 µM (inactive)
GI50 [48]: > 100 µM (inactive)
GI50 [49]: > 100 µM (inactive)
GI50 [50]: > 100 µM (inactive)
GI50 [51]: > 100 µM (inactive)

Cn1c2ccccc2n2c3ccccc3c(=O)c(C#N)c12
GI50 [1]: > 75.3 µM (inactive)
GI50 [2]: 8.24 µM (inactive)
GI50 [3]: 13 µM (inactive)
GI50 [52]: 13.9 µM (inactive)
GI50 [4]: 15.3 µM (inactive)
GI50 [5]: 3.44 µM (inactive)
GI50 [53]: 4.53 µM (inactive)
GI50 [54]: 43.2 µM (inactive)
GI50 [6]: 18.7 µM (inactive)
GI50 [7]: 3.23 µM (inactive)
GI50 [8]: 6.01 µM (inactive)
GI50 [55]: > 48.5 µM (inactive)
GI50 [9]: 55.6 µM (inactive)
GI50 [10]: 40.7 µM (inactive)
GI50 [11]: 19.2 µM (inactive)
GI50 [56]: 2.84 µM (inactive)
GI50 [12]: 27.3 µM (inactive)
GI50 [13]: 4.29 µM (inactive)
GI50 [14]: > 83.4 µM (inactive)
GI50 [15]: 4.94 µM (inactive)
GI50 [57]: 22.8 µM (inactive)
GI50 [58]: 71.8 µM (inactive)
GI50 [59]: 15 µM (inactive)
GI50 [60]: > 100 µM (inactive)
GI50 [18]: 6.56 µM (inactive)
GI50 [19]: 16.5 µM (inactive)
GI50 [20]: 2.91 µM (inactive)
GI50 [21]: 12.6 µM (inactive)
GI50 [22]: 8.38 µM (inactive)
GI50 [23]: 8.11 µM (inactive)
GI50 [61]: 13.2 µM (inactive)
GI50 [24]: 6.62 µM
GI50 [25]: 18.3 µM (inactive)
GI50 [28]: > 70 µM (inactive)
GI50 [29]: 17.9 µM (inactive)
GI50 [62]: 12.6 µM (inactive)
GI50 [30]: 6.01 µM (inactive)
GI50 [31]: > 100 µM (inactive)
GI50 [32]: 12 µM (inactive)
GI50 [33]: 9.79 µM (inactive)
GI50 [63]: 4.46 µM (inactive)
GI50 [34]: 2.96 µM (inactive)
GI50 [64]: 2.68 µM (inactive)
GI50 [65]: 17.6 µM (inactive)
GI50 [35]: 4.14 µM (inactive)
GI50 [36]: 2.27 µM (inactive)
GI50 [37]: 9.2 µM (inactive)
GI50 [38]: 4.27 µM (inactive)
GI50 [39]: 3.96 µM (inactive)
GI50 [40]: 3.41 µM (inactive)
GI50 [41]: 4.19 µM (inactive)
GI50 [42]: > 55 µM (inactive)
GI50 [66]: 3.85 µM (inactive)
GI50 [45]: 10.4 µM (inactive)
GI50 [46]: 12 µM (inactive)
GI50 [48]: 48.8 µM (inactive)
GI50 [67]: 10.1 µM (inactive)
GI50 [50]: 4.62 µM (inactive)
GI50 [51]: 4.38 µM (inactive)
